Results taken from patent US9586905B2, “Benzoazepine derivative and medical use thereof” (SANWA KAGAKU KENKYUSHO CO., LTD., priority 2012, dated 2017).

Tests used:
[1] = Rat PK test; format: in vivo; conditions: iv, male Sprague-Dawley rat, caudal vein administration, 0.5 mg/kg, plasma; for Vd: CLp multiplied by MRT, read-out: Vdss; for clearance: administration amount divided by AUC0-∞, read-out: CLp (converted)
Procedure: A male Sprague-Dawely (Crj: CD(SD)IGS: CHARLES RIVER LABORATORIES JAPAN, INC.) rat was used between 7 to 8 weeks of age as an experimental animal. A rat fasted for one night was used. A test compound was dissolved into DMSO, thereto were added PEG and physical saline to adjust a concentration to be 0.5 mg/mL (20/20/60, v/v/v), and the solution was administered to the caudal vein in a use amount of 0.5 mg/kg. A blood sample was taken with a syringe treated with heparin from the jugular vein with time from 6 to 8 hours after administration and the taken blood was centrifuged to obtain plasma. A plasma drug concentration was measured using LC/MS/MS. For the sample for the LC/MS/MS measurement, a supernatant obtained by adding an internal standard substance and acetonitrile to the plasma and then deproteinization was used. A PK parameter was analyzed by a non-compartment model. A clearance (CLp) was calculated by dividing an administration amount by AUC0-∞. A distribution volume (Vdss) was calculated by multiplying CLp by a mean retention time (MRT).

[2] = target: T1, human V2 receptor (Homo sapiens, UniProt P30518); assay: cAMP production test in V2 receptor expression cell; format: cell-based; conditions: for EC50: human V2 receptor expression cell, 30 minutes at room temperature, HTRF cAMP kit; for Emax: maximum reaction by 8-AVP assumed to be 100%
T1 construct: A DNA fragment containing a human V2 receptor code region; expressed in transfected cells
Procedure: Pharmacological Test (1) Preparation of Human V2 Receptor Expression Cell
A DNA fragment containing a human V2 receptor code region was inserted into an expression vector of a vertebrate cell. The expression vector was genetically introduced into an animal cell to have the human V2 receptor express in the surface of the cell. Since the expression vector could express a neo gene which functions as a G418 resistance marker, it was cultured in a G418-containing medium, thereby selectively obtaining a human V2 receptor stable expression cell.
(2) cAMP Production Test in V2 Receptor Expression Cell
The human V2 receptor expression cell, which was prepared in the above described method, was recovered and resuspended into an incubation buffer (F-12 medium, 20 mM HEPES), and 5 μl of the cell was then divided into a 384-well plate with a density of 15,000 cells/well. 5 μl of a compound solution or an 8-AVP ((Arg^8)-vasopressin) solution, which was diluted with an assay buffer (F-12 medium, 20 mM HEPES, 1 mM IBMX), (total 10 μl/well) was added to each well (final concentration: 15,000 cells/well, 500 μM IBMX, 1% dimethyl sulfoxide). After incubation at room temperature for 30 minutes, a cAMP production amount was measured using a commercially available HTRF cAMP kit (Cisbio Inc.) according to the described protocol. Excel Fit was used in order to find EC50 and Emax values of the test compound.

[3] = target: T2, CYP3A4 (Homo sapiens, UniProt P08684); assay: Test of inhibition of cytochrome P450 (3A4) enzyme; format: in vitro ADME; conditions: human liver microsome, midazolam 2.5 μM as substrate, test compound 0.21 to 50 μM, 37° C. 10 minutes
T2 construct: human liver microsome with a protein concentration of 0.1 mg protein/mL; from tissue; host or cells: human liver microsomes
Procedure: (4) Test of Inhibition of Cytochrome P450 (3A4) Enzyme
(§1) Using a 96 well plate, midazolam (2.5 μM) as a substrate, a test compound (0.21 to 50 μM), human liver microsome with a protein concentration of 0.1 mg protein/mL were added to a 0.1 M phosphoric acid buffer solution (pH=7.4), which contains 1.55 mM NADP^+, 3.3 mM glucose-6-phosphate, 3.3 mM MgCl2 and 0.4 Units/ml of glucose-6-phosphate dehydrogenase to form a reaction solution having a total amount of 500 μl. The reaction solution was incubated at 37° C. for 10 minutes and 4-hold amount of cold acetonitrile was added thereto to terminate the reaction. Then, the reaction solution was centrifuged (5000 g×10 minutes×4° C.), and the supernatant was collected to measure a production amount of a metabolized product by LC/MS/MS.

[4] = target: T3, CYP2C9 (Homo sapiens, UniProt P11712); assay: Test of inhibition of cytochrome P450 (2C9) enzyme; format: in vitro ADME; conditions: human liver microsome, sulfaphenazole 10 μM, test compound 0.21 to 50 μM, 37° C. 10 minutes
T3 construct: human liver microsome with a protein concentration of 0.1 mg protein/mL; from tissue; host or cells: human liver microsomes
Procedure: (5) Test of Inhibition of Cytochrome P450 (2C9) Enzyme
as §1, with “sulfaphenazole (10” for “midazolam (2.5”, “[…].” for “500 μl.”

T3 sequence (P11712 whole entry): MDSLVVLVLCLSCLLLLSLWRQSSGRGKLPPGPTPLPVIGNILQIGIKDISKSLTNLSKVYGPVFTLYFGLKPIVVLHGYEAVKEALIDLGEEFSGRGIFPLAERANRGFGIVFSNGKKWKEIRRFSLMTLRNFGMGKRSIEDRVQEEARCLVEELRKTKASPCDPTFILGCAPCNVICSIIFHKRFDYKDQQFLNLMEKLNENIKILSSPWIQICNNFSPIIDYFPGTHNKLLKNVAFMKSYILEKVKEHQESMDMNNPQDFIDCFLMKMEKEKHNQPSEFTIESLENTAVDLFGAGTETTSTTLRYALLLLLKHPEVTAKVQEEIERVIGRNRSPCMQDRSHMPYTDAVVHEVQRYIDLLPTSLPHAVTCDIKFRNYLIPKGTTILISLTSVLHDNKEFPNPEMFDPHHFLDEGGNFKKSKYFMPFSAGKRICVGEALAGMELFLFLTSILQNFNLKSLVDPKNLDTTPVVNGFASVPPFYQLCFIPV
T1 sequence (P30518 whole entry, the tested form may be a part): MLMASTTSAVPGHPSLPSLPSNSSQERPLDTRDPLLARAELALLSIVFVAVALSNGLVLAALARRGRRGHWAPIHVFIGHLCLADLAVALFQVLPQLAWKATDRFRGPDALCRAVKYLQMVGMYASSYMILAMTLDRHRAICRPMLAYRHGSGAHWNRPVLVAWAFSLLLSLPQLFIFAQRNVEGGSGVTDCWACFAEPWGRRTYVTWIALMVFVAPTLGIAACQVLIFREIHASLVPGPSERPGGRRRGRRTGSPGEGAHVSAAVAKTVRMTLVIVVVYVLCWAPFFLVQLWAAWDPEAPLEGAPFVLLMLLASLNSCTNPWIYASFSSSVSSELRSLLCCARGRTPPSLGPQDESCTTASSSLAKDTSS
T2 sequence (P08684 whole entry): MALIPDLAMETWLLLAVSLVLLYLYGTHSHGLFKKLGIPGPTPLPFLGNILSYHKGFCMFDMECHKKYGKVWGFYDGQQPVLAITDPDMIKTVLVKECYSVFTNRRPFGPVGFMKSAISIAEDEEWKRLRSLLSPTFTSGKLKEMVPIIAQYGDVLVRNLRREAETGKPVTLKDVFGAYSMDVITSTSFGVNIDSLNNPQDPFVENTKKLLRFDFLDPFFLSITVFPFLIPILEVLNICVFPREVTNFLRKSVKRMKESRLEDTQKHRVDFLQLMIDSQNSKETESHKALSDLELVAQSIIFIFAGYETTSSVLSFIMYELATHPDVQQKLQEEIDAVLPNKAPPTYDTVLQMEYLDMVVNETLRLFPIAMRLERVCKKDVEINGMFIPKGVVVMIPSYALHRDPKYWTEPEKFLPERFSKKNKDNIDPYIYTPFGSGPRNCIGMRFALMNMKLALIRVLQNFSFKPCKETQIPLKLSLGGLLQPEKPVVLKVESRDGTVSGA

Compound | AUC [1] [ng·h/mL] | Vd [1] [L/kg] | clearance [1] [mL/min/kg] | EC50 [2] [µM] | Emax [2] [%] | IC50 [3] [µM] | IC50 [4] [µM]
Cc1ccn(-c2ccc(C(=O)N3CCC(C)(C(=O)NC(C)CO)Cc4ccccc43)c(Cl)c2)n1 (single isomer, unassigned) [Example 72] | 430 | 0.96 | 19.3 | 0.0021 | 101 | > 50 | 46.8
Cc1ccn(-c2ccc(C(=O)N3CCC(C)(C(=O)NC(C)CO)Cc4ccccc43)c(C(F)(F)F)c2)n1 (single isomer, unassigned) [Example 89] | 371 | 1.23 | 22.5 | 0.0014 | 102 | > 50 | 40.2
CC(NC(=O)C1(C)CCN(C(=O)c2ccc(N3CCCC3)cc2C(F)(F)F)c2ccccc2C1)C(N)=O (single isomer, unassigned) [Example 90] | 613 | 1.08 | 13.6 | 0.00039 | 101 |  | 
C[C@@H]1CN(C(=O)c2ccc(-n3cccn3)cc2Cl)c2ccccc2CN1C(=O)NCCO [comparative compound 1, N-(2-hydroxyethyl)-(R)-1-(2-chloro-4-pyrazol-1-ylbenzoyl)-3-methyl-1,2,3,5-tetrahydro-benzo[e]-1,4-diazepine-4-carboxamide, reference compound] | 176 | 4.72 | 47.8 |  |  |  | 
CC(C)NC(=O)C[C@H]1CCCN(C(=O)c2ccc(N3CCCC3)cc2Cl)c2ccccc21 [comparative compound 2, 2-[(5R)-1-(2-chloro-4-pyrrolidine-1-ylbenzoyl)-2,3,4,5-tetrahydrobenzoazepine-5-yl]-N-isopropylacetoamide, reference compound] |  |  |  |  |  | 0.4 | 0.2
